Results: PubChem BioAssay (NCI)
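Five compound concentrations were applied to cells in 96-well plates for 48 hours; endpoints were derived by simple linear interpolation of the resulting dose-response curve. TGI denotes the concentration required for complete inhibition of growth.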

Key:
Assay in all cases: growth of human tumour cells (NCI), 48 h
A549 NSCLC = system: A549 NSCLC
786-0 renal = system: 786-0 renal
K-562 leukemia = system: K-562 leukemia
ACHN renal = system: ACHN renal
HOP-62 NSCLC = system: HOP-62 NSCLC
A498 renal = system: A498 renal
OVCAR-5 ovarian = system: OVCAR-5 ovarian
DU-145 prostate = system: DU-145 prostate
CCRF-CEM leukemia = system: CCRF-CEM leukemia
SK-MEL-5 melanoma = system: SK-MEL-5 melanoma
SF-295 CNS = system: SF-295 CNS
LOX IMVI melanoma = system: LOX IMVI melanoma
MDA-MB-231 breast = system: MDA-MB-231 breast
SNB-19 CNS = system: SNB-19 CNS
EKVX NSCLC = system: EKVX NSCLC
HOP-92 NSCLC = system: HOP-92 NSCLC
MDA-N = system: MDA-N
MOLT-4 leukemia = system: MOLT-4 leukemia
M14 melanoma = system: M14 melanoma
RPMI-8226 leukemia = system: RPMI-8226 leukemia
TK-10 renal = system: TK-10 renal
UACC-62 melanoma = system: UACC-62 melanoma
OVCAR-3 ovarian = system: OVCAR-3 ovarian
NCI-H23 lung = system: NCI-H23 lung
COLO 205 colon = system: COLO 205 colon
SR leukemia = system: SR leukemia
PC-3 prostate = system: PC-3 prostate
SNB-75 CNS = system: SNB-75 CNS
SF-268 CNS = system: SF-268 CNS
MDA-MB-435 = system: MDA-MB-435
HS 578T breast = system: HS 578T breast
BT-549 breast = system: BT-549 breast
CAKI-1 renal = system: CAKI-1 renal
OVCAR-8 ovarian = system: OVCAR-8 ovarian
UO-31 renal = system: UO-31 renal
KM12 colon = system: KM12 colon
RXF 393 renal = system: RXF 393 renal
HCT-15 colon = system: HCT-15 colon
T-47D breast = system: T-47D breast
NCI-H460 lung = system: NCI-H460 lung
SW-620 colon = system: SW-620 colon
U251 CNS = system: U251 CNS
SF-539 CNS = system: SF-539 CNS
IGROV1 ovarian = system: IGROV1 ovarian
HT29 colon = system: HT29 colon
SK-MEL-2 melanoma = system: SK-MEL-2 melanoma
HCT-116 colon = system: HCT-116 colon
SK-MEL-28 melanoma = system: SK-MEL-28 melanoma
SK-OV-3 ovarian = system: SK-OV-3 ovarian
NCI-H522 lung = system: NCI-H522 lung
MCF7 breast = system: MCF7 breast
SN12C renal = system: SN12C renal
NCI/ADR-RES ovarian = system: NCI/ADR-RES ovarian
HCC-2998 colon = system: HCC-2998 colon
NCI-H226 lung = system: NCI-H226 lung
UACC-257 melanoma = system: UACC-257 melanoma
OVCAR-4 ovarian = system: OVCAR-4 ovarian
HL-60(TB) leukemia = system: HL-60(TB) leukemia
MALME-3M melanoma = system: MALME-3M melanoma

O=c1c2cc3c(=O)n4c(cc(-c5ccccc5)c5cc(Cl)ccc54)nc3cc2nc2cc(-c3ccccc3)c3cc(Cl)ccc3n12
TGI (A549 NSCLC): > 100 µM
TGI (786-0 renal): > 100 µM
TGI (K-562 leukemia): > 100 µM
TGI (ACHN renal): > 100 µM
TGI (HOP-62 NSCLC): > 100 µM
TGI (A498 renal): > 100 µM
TGI (OVCAR-5 ovarian): > 100 µM
TGI (DU-145 prostate): > 100 µM
TGI (CCRF-CEM leukemia): > 100 µM
TGI (SK-MEL-5 melanoma): > 100 µM
TGI (SF-295 CNS): > 100 µM
TGI (LOX IMVI melanoma): > 100 µM
TGI (MDA-MB-231 breast): > 100 µM
TGI (SNB-19 CNS): > 100 µM
TGI (EKVX NSCLC): > 100 µM
TGI (HOP-92 NSCLC): > 100 µM
TGI (MDA-N): > 100 µM
TGI (MOLT-4 leukemia): > 100 µM
TGI (M14 melanoma): > 100 µM
TGI (RPMI-8226 leukemia): > 100 µM
TGI (TK-10 renal): > 100 µM
TGI (UACC-62 melanoma): > 100 µM
TGI (OVCAR-3 ovarian): > 100 µM
TGI (NCI-H23 lung): > 100 µM
TGI (COLO 205 colon): > 100 µM
TGI (SR leukemia): > 100 µM
TGI (PC-3 prostate): > 100 µM
TGI (SNB-75 CNS): > 100 µM
TGI (SF-268 CNS): > 100 µM
TGI (MDA-MB-435): > 100 µM
TGI (HS 578T breast): > 100 µM
TGI (BT-549 breast): > 100 µM
TGI (CAKI-1 renal): > 100 µM
TGI (OVCAR-8 ovarian): > 100 µM
TGI (UO-31 renal): > 100 µM
TGI (KM12 colon): > 100 µM
TGI (RXF 393 renal): > 100 µM
TGI (HCT-15 colon): > 100 µM
TGI (T-47D breast): > 100 µM
TGI (NCI-H460 lung): > 100 µM
TGI (SW-620 colon): > 100 µM
TGI (U251 CNS): > 100 µM
TGI (SF-539 CNS): > 100 µM
TGI (IGROV1 ovarian): > 100 µM
TGI (HT29 colon): > 100 µM
TGI (SK-MEL-2 melanoma): > 100 µM
TGI (HCT-116 colon): > 100 µM
TGI (SK-MEL-28 melanoma): > 100 µM
TGI (SK-OV-3 ovarian): > 100 µM
TGI (NCI-H522 lung): > 100 µM
TGI (MCF7 breast): > 100 µM
TGI (SN12C renal): > 100 µM
TGI (NCI/ADR-RES ovarian): > 100 µM
TGI (HCC-2998 colon): > 100 µM
TGI (NCI-H226 lung): > 100 µM
TGI (UACC-257 melanoma): > 100 µM

CC(C)O/N=C/c1cc(NC(=S)OC(C)C)ccc1Cl
TGI (A549 NSCLC): > 90.6 µM
TGI (OVCAR-4 ovarian): > 88.8 µM
TGI (786-0 renal): > 65.6 µM
TGI (K-562 leukemia): > 53.4 µM
TGI (ACHN renal): 97.6 µM
TGI (HOP-62 NSCLC): > 70.6 µM
TGI (A498 renal): > 76.5 µM
TGI (OVCAR-5 ovarian): > 86.1 µM
TGI (HL-60(TB) leukemia): 57.6 µM
TGI (DU-145 prostate): > 100 µM
TGI (CCRF-CEM leukemia): 34.6 µM
TGI (SK-MEL-5 melanoma): > 73.4 µM
TGI (SF-295 CNS): 62.7 µM
TGI (LOX IMVI melanoma): > 52.5 µM
TGI (MDA-MB-231 breast): 62 µM
TGI (SNB-19 CNS): > 72.4 µM
TGI (EKVX NSCLC): > 75.2 µM
TGI (HOP-92 NSCLC): 99.8 µM
TGI (MDA-N): > 100 µM
TGI (MOLT-4 leukemia): 48.8 µM
TGI (M14 melanoma): > 95.6 µM
TGI (RPMI-8226 leukemia): 54.2 µM
TGI (TK-10 renal): > 100 µM
TGI (UACC-62 melanoma): > 69.3 µM
TGI (OVCAR-3 ovarian): > 52.6 µM
TGI (NCI-H23 lung): > 100 µM
TGI (MALME-3M melanoma): > 100 µM
TGI (COLO 205 colon): > 81.3 µM
TGI (SR leukemia): 45 µM
TGI (PC-3 prostate): > 100 µM
TGI (SNB-75 CNS): 57.2 µM
TGI (SF-268 CNS): > 69.8 µM
TGI (MDA-MB-435): > 100 µM
TGI (HS 578T breast): > 79.2 µM
TGI (BT-549 breast): > 100 µM
TGI (CAKI-1 renal): > 84.7 µM
TGI (OVCAR-8 ovarian): > 90.3 µM
TGI (UO-31 renal): > 61.2 µM
TGI (KM12 colon): > 100 µM
TGI (RXF 393 renal): 52.9 µM
TGI (HCT-15 colon): > 66.1 µM
TGI (T-47D breast): > 100 µM
TGI (NCI-H460 lung): > 100 µM
TGI (SW-620 colon): > 72.6 µM
TGI (U251 CNS): > 70.2 µM
TGI (SF-539 CNS): > 78.8 µM
TGI (IGROV1 ovarian): > 94.1 µM
TGI (HT29 colon): 66.3 µM
TGI (SK-MEL-2 melanoma): > 61.7 µM
TGI (HCT-116 colon): > 74.3 µM
TGI (SK-MEL-28 melanoma): > 91.8 µM
TGI (SK-OV-3 ovarian): 98.3 µM
TGI (NCI-H522 lung): > 67.4 µM
TGI (MCF7 breast): > 68.8 µM
TGI (SN12C renal): > 57.9 µM
TGI (NCI/ADR-RES ovarian): > 84.9 µM
TGI (HCC-2998 colon): > 75.3 µM
TGI (NCI-H226 lung): > 51.2 µM
TGI (UACC-257 melanoma): > 100 µM

CCOC(=O)C1=NN(c2ccc([N+](=O)[O-])cc2)[C@@]2(C)C[C@]3(c4ccccc4)N(c4ccc([N+](=O)[O-])cc4)N=C(C(=O)OCC)N3c3ccccc3N12
TGI (A549 NSCLC): > 100 µM
TGI (OVCAR-4 ovarian): > 100 µM
TGI (786-0 renal): > 100 µM
TGI (K-562 leukemia): > 100 µM
TGI (ACHN renal): > 100 µM
TGI (HOP-62 NSCLC): > 100 µM
TGI (A498 renal): > 100 µM
TGI (OVCAR-5 ovarian): > 100 µM
TGI (HL-60(TB) leukemia): > 100 µM
TGI (DU-145 prostate): > 100 µM
TGI (CCRF-CEM leukemia): > 100 µM
TGI (SK-MEL-5 melanoma): > 100 µM
TGI (SF-295 CNS): > 100 µM
TGI (LOX IMVI melanoma): > 100 µM
TGI (MDA-MB-231 breast): 84.4 µM
TGI (SNB-19 CNS): > 100 µM
TGI (EKVX NSCLC): > 100 µM
TGI (MDA-N): > 100 µM
TGI (MOLT-4 leukemia): > 100 µM
TGI (M14 melanoma): > 100 µM
TGI (RPMI-8226 leukemia): > 100 µM
TGI (TK-10 renal): > 100 µM
TGI (UACC-62 melanoma): > 100 µM
TGI (OVCAR-3 ovarian): > 100 µM
TGI (NCI-H23 lung): > 100 µM
TGI (MALME-3M melanoma): > 100 µM
TGI (COLO 205 colon): > 100 µM
TGI (SR leukemia): > 100 µM
TGI (PC-3 prostate): > 100 µM
TGI (SNB-75 CNS): > 100 µM
TGI (SF-268 CNS): > 100 µM
TGI (MDA-MB-435): > 100 µM
TGI (HS 578T breast): > 100 µM
TGI (BT-549 breast): > 100 µM
TGI (CAKI-1 renal): > 100 µM
TGI (OVCAR-8 ovarian): > 100 µM
TGI (UO-31 renal): > 100 µM
TGI (KM12 colon): > 100 µM
TGI (RXF 393 renal): > 100 µM
TGI (HCT-15 colon): > 100 µM
TGI (T-47D breast): > 100 µM
TGI (SW-620 colon): > 100 µM
TGI (U251 CNS): > 100 µM
TGI (SF-539 CNS): > 100 µM
TGI (IGROV1 ovarian): > 100 µM
TGI (HT29 colon): > 100 µM
TGI (SK-MEL-2 melanoma): > 100 µM
TGI (HCT-116 colon): > 100 µM
TGI (SK-MEL-28 melanoma): > 100 µM
TGI (SK-OV-3 ovarian): > 100 µM
TGI (NCI-H522 lung): > 100 µM
TGI (MCF7 breast): > 100 µM
TGI (SN12C renal): > 100 µM
TGI (NCI/ADR-RES ovarian): > 100 µM
TGI (HCC-2998 colon): > 100 µM
TGI (NCI-H226 lung): > 100 µM
TGI (UACC-257 melanoma): > 100 µM
